Test results: article PMC13586308, “Cell type–selective targeting by heterobifunctional protein binders via in-cell enrichment” (Nature Communications, 2026)
Where two headings read alike, the source gives them in different places.

Columns and labels:
FKBP12 [1] = target: T1, FKBP12 (Homo sapiens, UniProt P62942); assay: NanoBRET FKBP12 in intact HEK293 cells; format: cell-based
BRD4^BD1 = target: T2, BRD4^BD1 (Homo sapiens, UniProt O60885); assay: competitive fluorescence polarization assay, BRD4 BD1 -/+ presenter protein; format: binding; conditions: for α BRD4^BD1 (binding cooperativity factor): ratio of binding in absence or presence of FKBP12
T2 construct: to the isolated BD1 and BD2 domains of BRD2, BRD3 and BRD4

BRD4 = target: T3, BRD4 (Homo sapiens, UniProt O60885); assay: NanoBRET BRD4, transient BRD4-NanoLuc in HEK293T cells; format: cell-based; conditions: intact HEK293 cells
T3 construct: full-length BRD4 fused to NanoLuc at N terminus; expressed in transfected cells; host or cells: HEK293T
Protocol: The NanoBRET assay was performed as described previously[26],[39]. To study BRD4 engagement, we employed two models: cells stably expressing BRD4-NanoLuc and cells with transient BRD4-NanoLuc expression. For stable cell lines, the coding sequence of human BRD4 (Isoform B) was fused in-frame to NanoLuc luciferase under the control of the human ubiquitin C (UbC) promoter, with left and right homology arms targeting the AAVS1 locus in intron 1 of the PPP1R12C gene to facilitate genomic integration. PC3 prostate cancer cells were transfected with this construct and vectors expressing Cas9 and an sgRNA targeting the AAVS1 locus using Lipofectamine 3000 (Invitrogen). Successful integrands were selected with blasticidin. Expression of the fusion protein was confirmed by western blot. For transient experiments, full-length BRD4 fused to NanoLuc at N terminus, was cloned into an expression plasmid and transfected into HEK293T cells using FuGENE HD (Promega, E2312), with protein expression allowed for 20 h. Serially diluted inhibitors and BRD Tracer-02 (Promega, TracerDB ID: T000022) at the Tracer KD concentration (from TracerDB)[40] were dispensed into white 384-well plates (Greiner 781207) using an ECHO 550 acoustic dispenser (Labcyte). The cells were trypsinized, resuspended in Opti-MEM without phenol red (Life Technologies), and seeded at 2 × 10^5 cells/mL. After equilibration for 2 h at 37 °C/5% CO₂ following compound treatment, the NanoBRET® NanoGlo Substrate + Extracellular NanoLuc® Inhibitor (Promega, N2162) was added according to the manufacturer’s protocol, and filtered luminescence was measured on a PHERAstar plate reader (BMG Labtech) using a donor (450 nm BP) and acceptor (610 nm LP) filter pair. Competitive displacement data were analyzed using GraphPad Prism 9 with a normalized 3-parameter curve fit: Y = 100/(1 + 10^(X − log IC₅₀)). For BRET measurements after FKBP12 knockdown in stably expressing BRD4 Nano-Luc reporter cell line, 10 nL/per well of the FKBP12 PROTAC was pipetted to each well using Labcyte to achieve the final concentration of 200 nM and the plated cells were incubated over-night at 37 °C and 5% CO2. BRET measurements were performed as outlined above.

BRD4^BD2 = target: T4, BRD4^BD2 (Homo sapiens, UniProt O60885); assay: competitive fluorescence polarization assay, BRD4 BD2 -/+ presenter protein; format: binding; conditions: for α BRD4^BD2 (binding cooperativity factor): ratio of binding in absence or presence of FKBP12
T4 construct: to the isolated BD1 and BD2 domains of BRD2, BRD3 and BRD4

FKBP12 [2] = target: T1, FKBP12; assay: competitive fluorescence polarization assay, binding to FKBP12; conditions: competitive FP assay
[3] = absence of FKBP12, 2 nM JQ1-FL tracer, read-out: Binding to BRD4^BD1 - FKBP12 Kd
[4] = presence of 15 µM FKBP12, read-out: Binding to BRD4^BD1 + FKBP12 Kd (converted)
[5] = absence of FKBP12, 2 nM JQ1-FL tracer, read-out: Binding to BRD4^BD2 - FKBP12 Kd
[6] = presence of 15 µM FKBP12, read-out: Binding to BRD4^BD2 + FKBP12 Kd (converted)

T1 sequence (P62942 whole entry): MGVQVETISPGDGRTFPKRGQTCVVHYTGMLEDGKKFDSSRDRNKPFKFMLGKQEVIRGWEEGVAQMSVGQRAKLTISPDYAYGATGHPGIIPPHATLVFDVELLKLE

Structure (SMILES)	IC50 (FKBP12 [1])	Kd (BRD4^BD1; [3])	Kd (BRD4^BD1; [4])	α BRD4^BD1 (binding cooperativity factor) (BRD4^BD1)	IC50 (BRD4)	Kd (BRD4^BD2; [5])	Kd (BRD4^BD2; [6])	α BRD4^BD2 (binding cooperativity factor) (BRD4^BD2)	Kd (FKBP12 [2])	nanoBRET BRD4 IC50 (BRD4)
Cc1sc2c(c1C)C(c1ccc(Cl)cc1)=NC(CC(=O)N1CCC(CN3CCC(n4cc(C5CN(Cc6ccccn6)C(=O)C6CCCC5N6S(=O)(=O)c5cc(Cl)cc(Cl)c5)nn4)CC3)CC1)c1nnc(C)n1-2 (stereo not drawn) [a7c]	138 nM	520 ± 80 nM	180 ± 30 nM	2.9	665 nM	700 ± 100 nM	900 ± 200 nM	0.8	3.5 nM	
Cc1sc2c(c1C)C(c1ccc(Cl)cc1)=NC(CC(=O)N1CCC(N3CCC(Cn4cc(COCC5CN(Cc6ccccn6)C(=O)C6CCCC5N6S(=O)(=O)c5cc(Cl)cc(Cl)c5)nn4)CC3)CC1)c1nnc(C)n1-2 (stereo not drawn) [a10d]	241 nM	140 ± 30 nM	100 ± 30 nM	1.4		170 ± 30 nM	80 ± 20 nM	2.1	1.6 nM	none
Cc1sc2c(c1C)C(c1ccc(Cl)cc1)=NC(CC(=O)N1CCN(CCn3cc(COCC4CN(Cc5ccccn5)C(=O)C5CCCC4N5S(=O)(=O)c4cc(Cl)cc(Cl)c4)nn3)CC1)c1nnc(C)n1-2 (stereo not drawn) [a4d]	89 nM	500 ± 60 nM	380 ± 50 nM	1.3				1	1.1 nM	none
Cc1sc2c(c1C)C(c1ccc(Cl)cc1)=NC(CC(=O)N1CCC(CN3CCC(Cn4cc(COCC5CN(Cc6ccccn6)C(=O)C6CCCC5N6S(=O)(=O)c5cc(Cl)cc(Cl)c5)nn4)CC3)CC1)c1nnc(C)n1-2 (stereo not drawn) [a8d]	228 nM	160 ± 30 nM	84 ± 16 nM	1.9	357 nM	130 ± 30 nM	120 ± 30 nM	1	1.8 nM	
Cc1sc2c(c1C)C(c1ccc(Cl)cc1)=NC(CC(=O)NCCOCCn1cc(COC(C)C3CN(Cc4ccccn4)C(=O)C4CCCC3N4S(=O)(=O)c3cc(Cl)cc(Cl)c3)nn1)c1nnc(C)n1-2 (stereo not drawn) [a1f]	24 nM	180 ± 20 nM	140 ± 14 nM	1.3	560 nM	50 ± 14 nM	230 ± 30 nM	0.2	1.6 nM	
Cc1sc2c(c1C)C(c1ccc(Cl)cc1)=NC(CC(=O)N1CC(CN3CCC(n4cc(C5CN(Cc6ccccn6)C(=O)C6CCCC5N6S(=O)(=O)c5cc(Cl)cc(Cl)c5)nn4)CC3)C1)c1nnc(C)n1-2 (stereo not drawn) [a11c]	218 nM		190 ± 30 nM	5.3	1230 nM		450 ± 70 nM	4.7	0.7 nM	
Cc1sc2c(c1C)C(c1ccc(Cl)cc1)=NC(CC(=O)N1CCN(CCCn3cc(COCC4CN(Cc5ccccn5)C(=O)C5CCCC4N5S(=O)(=O)c4cc(Cl)cc(Cl)c4)nn3)CC1)c1nnc(C)n1-2 (stereo not drawn) [a5d]	93 nM	740 ± 100 nM	300 ± 50 nM	2.5	1080 nM		600 ± 100 nM	1.8	1.2 nM	
Cc1sc2c(c1C)C(c1ccc(Cl)cc1)=NC(CC(=O)N1CCC(CN3CCC(Cn4cc(C5CN(Cc6ccccn6)C(=O)C6CCCC5N6S(=O)(=O)c5cc(Cl)cc(Cl)c5)nn4)CC3)CC1)c1nnc(C)n1-2 (stereo not drawn) [a8c]	178 nM	170 ± 20 nM	150 ± 20 nM	1.1	541 nM	190 ± 30 nM	160 ± 30 nM	1.2	2.1 nM	
Cc1sc2c(c1C)C(c1ccc(Cl)cc1)=NC(CC(=O)N1CCC(N3CCC(n4cc(COCC5CN(Cc6ccccn6)C(=O)C6CCCC5N6S(=O)(=O)c5cc(Cl)cc(Cl)c5)nn4)CC3)CC1)c1nnc(C)n1-2 (stereo not drawn) [a9d]	169 nM	340 ± 40 nM	140 ± 10 nM	2.4	364 nM	500 ± 90 nM	450 ± 70 nM	1.1	1.7 nM	
C=C[C@H]1CN(Cc2ccccn2)C(=O)[C@@H]2CCC[C@H]1N2S(=O)(=O)c1ccc(-c2cn(CCOCCOCCNC(=O)C[C@@H]3N=C(c4ccc(Cl)cc4)c4c(sc(C)c4C)-n4c(C)nnc43)nn2)c(Cl)c1 [a2h]	170 nM	210 ± 18 nM	2400 ± 200 nM		300 nM	46 ± 10 nM	1300 ± 200 nM		2.4 nM	
Cc1sc2c(c1C)C(c1ccc(Cl)cc1)=NC(CC(=O)N1CC(CN3CCC(Cn4cc(C5CN(Cc6ccccn6)C(=O)C6CCCC5N6S(=O)(=O)c5cc(Cl)cc(Cl)c5)nn4)CC3)C1)c1nnc(C)n1-2 (stereo not drawn) [a12c]	280 nM	390 ± 50 nM	230 ± 20 nM	1.7	748 nM	800 ± 100 nM	700 ± 90 nM	1.1	1.8 nM	
Cc1sc2c(c1C)C(c1ccc(Cl)cc1)=NC(CC(=O)N1CC(CN3CCC(Cn4cc(COCC5CN(Cc6ccccn6)C(=O)C6CCCC5N6S(=O)(=O)c5cc(Cl)cc(Cl)c5)nn4)CC3)C1)c1nnc(C)n1-2 (stereo not drawn) [a12d]	406 nM	250 ± 40 nM	40 ± 10 nM	6.3	514 nM		590 ± 70 nM	1.9	2.3 nM	
Cc1sc2c(c1C)C(c1ccc(Cl)cc1)=NC(CC(=O)NCCOCCn1cc(COCC3CN(CC(=O)N4CCC(C)CC4)C(=O)C4CCCC3N4S(=O)(=O)c3cc(Cl)cc(Cl)c3)nn1)c1nnc(C)n1-2 (stereo not drawn) [a1dk]	9.1 nM	520 ± 90 nM	200 ± 40 nM	2.6	1190 nM	320 ± 60 nM	800 ± 100 nM	0.4	0.47 nM	
C=CC1CN(Cc2ccccn2)C(=O)C2CCCC1N2S(=O)(=O)c1cc(Cl)cc(-c2cn(CCOCCNC(=O)CC3N=C(c4ccc(Cl)cc4)c4c(sc(C)c4C)-n4c(C)nnc43)nn2)c1 (stereo not drawn) [a1g]	230 nM		> 20000 nM		1500 nM			0.2	46 nM	
Cc1sc2c(c1C)C(c1ccc(Cl)cc1)=NC(CC(=O)NCCOCCOCCn1cc(C3CN(Cc4ccccn4)C(=O)C4CCCC3N4S(=O)(=O)c3cc(Cl)cc(Cl)c3)nn1)c1nnc(C)n1-2 (stereo not drawn) [a2c]	17 nM	440 ± 70 nM	250 ± 40 nM	1.8	620 nM	510 ± 110 nM		0.5	0.6 nM	
C=CC1CN(Cc2ccccn2)C(=O)C2CCCC1N2S(=O)(=O)c1ccc(-c2cn(CCOCCNC(=O)CC3N=C(c4ccc(Cl)cc4)c4c(sc(C)c4C)-n4c(C)nnc43)nn2)c(Cl)c1 (stereo not drawn) [a1h]	530 nM	100 ± 18 nM	1700 ± 200 nM		270 nM	52 ± 13 nM	1100 ± 200 nM		50 nM	
Cc1sc2c(c1C)C(c1ccc(Cl)cc1)=NC(CC(=O)N1CCC(N3CCC(Cn4cc(C5CN(Cc6ccccn6)C(=O)C6CCCC5N6S(=O)(=O)c5cc(Cl)cc(Cl)c5)nn4)CC3)CC1)c1nnc(C)n1-2 (stereo not drawn) [a10c]	288 nM	120 ± 30 nM	900 ± 100 nM	0.1	497 nM	170 ± 30 nM			0.3 nM	
C=CC1CN(Cc2ccccn2)C(=O)C2CCCC1N2S(=O)(=O)c1cc(Cl)cc(-c2cn(CCOCCOCCNC(=O)CC3N=C(c4ccc(Cl)cc4)c4c(sc(C)c4C)-n4c(C)nnc43)nn2)c1 (stereo not drawn) [a2g]				0.4	3070 nM	580 ± 90 nM		0.4	76 nM	
